What was measured:
[1] = relative to cholecalciferol itself; cited from earlier work
[2] = Determination of solubility velocity by ICP-MS in 0.1 M hydrochloride solution; details: 0.1 M HCl, 37° C., 84Sr signal by ICP-MS
Method: Determination of Solubility Velocity by Inductively Coupled Plasma-Mass Spectrometry (ICP-MS)
The solubility is measures as strontium signals over time using ICP-MS. Using this technique it is possible to follow multiple isotopes of the element, here, ^84Sr, ^86Sr, ^87Sr and ^88Sr.
A hydrochloride solution (0.1 M) was added to the sample and the sample then immediately enters, by means of a peristaltic pump, the atomizer of the ICP-MS apparatus. The pump speed was 4.4 ml/min.
The hydrochloride concentration of 0.1 M equals the concentration of HCl in the stomach. The temperature of the HCl solution was 37° C.
The solubility velocity of the compound is obtained by analysing the slopes of the front curves. The first curve represents the experiment and the second curve the apparatus, thus the difference between the slopes of the two curves are used to calculate the solubility velocity by division with the top value.

Row | Structure (SMILES) | times more effective in terms of bioavailability than cholecalciferol [1] | solubility velocity in hydrochloride [2]
1 | C=C1CC[C@H](O)C/C1=C/C=C1\CCC[C@]2(C)[C@@H]([C@H](C)CCCC(C)(C)O)CC[C@@H]12 [25-hydroxycholecalciferol] | five | 
2 | [Cl-].[Cl-].[Sr+2] [strontium chloride] |  | very high
3 | C=C1/C(=C\C=C2/CCC[C@]3(C)[C@@H]([C@H](C)CCCC(C)(C)O)CC[C@@H]23)C[C@@H](O)C[C@@H]1O [1,25 dihydroxycholecalciferol] | ten | 
